Measured values reported in US20260130395A1, “Water Dispersible Botanical Compositions” (Aquila Black Limited, priority 2021, published 2026).

Assay: Stability of cannabinoid compounds and Vitamin E components in Beverage 2 (AB Red) by LCMSMS
Format: physicochemical

CCCCCc1cc(O)c2c(c1)OC(C)(C)c1ccc(C)cc1-2 [CBN, cannabinol]
Stability of Plant-Derived Cannabinoid Compounds in AB Red (stored at 8° C., 0 days): 2.81 µg/mL
Stability of Plant-Derived Cannabinoid Compounds in AB Red (stored at 8° C., 1 days): 2.82 µg/mL
Stability of Plant-Derived Cannabinoid Compounds in AB Red (stored at 8° C., 2 days): 2.74 µg/mL
Stability of Plant-Derived Cannabinoid Compounds in AB Red (stored at 8° C., 3 days): 2.83 µg/mL
Stability of Plant-Derived Cannabinoid Compounds in AB Red (stored at 8° C., 5 days): 2.78 µg/mL
Stability of Plant-Derived Cannabinoid Compounds in AB Red (stored at 8° C., 8 days): 2.80 µg/mL
Stability of Plant-Derived Cannabinoid Compounds in AB Red (stored at 8° C., 9 days): 2.74 µg/mL
Stability of Plant-Derived Cannabinoid Compounds in AB Red (stored at 8° C., 10 days): 2.79 µg/mL
Stability of Plant-Derived Cannabinoid Compounds in AB Red (stored at 8° C., 11 days): 2.73 µg/mL
Stability of Plant-Derived Cannabinoid Compounds in AB Red (stored at 8° C., 12 days): 2.76 µg/mL
Stability of Plant-Derived Cannabinoid Compounds in AB Red (stored at 8° C., 15 days): 2.77 µg/mL
Stability of Plant-Derived Cannabinoid Compounds in AB Red (stored at 8° C., 16 days): 2.83 µg/mL
Stability of Plant-Derived Cannabinoid Compounds in AB Red (stored at 8° C., 17 days): 2.80 µg/mL
Stability of Plant-Derived Cannabinoid Compounds in AB Red (stored at 8° C., 18 days): 2.78 µg/mL
Stability of Plant-Derived Cannabinoid Compounds in AB Red (stored at 8° C., 19 days): 2.78 µg/mL
Stability of Plant-Derived Cannabinoid Compounds in AB Red (stored at 8° C., 22 days): 2.73 µg/mL
Stability of Plant-Derived Cannabinoid Compounds in AB Red (stored at 8° C., 23 days): 2.79 µg/mL
Stability of Plant-Derived Cannabinoid Compounds in AB Red (stored at 8° C., 24 days): 2.76 µg/mL
Stability of Plant-Derived Cannabinoid Compounds in AB Red (stored at 8° C., 25 days): 2.83 µg/mL
Stability of Plant-Derived Cannabinoid Compounds in AB Red (stored at 8° C., 26 days): 2.79 µg/mL
Stability of Plant-Derived Cannabinoid Compounds in AB Red (stored at 8° C., 29 days): 2.77 µg/mL
Stability of Plant-Derived Cannabinoid Compounds in AB Red (stored at 8° C., 30 days): 2.77 µg/mL
Stability of Plant-Derived Cannabinoid Compounds in AB Red (stored at 8° C., 60 days): 2.73 µg/mL
Stability of Plant-Derived Cannabinoid Compounds in AB Red (stored at 8° C., 90 days): 2.80 µg/mL
Stability of Plant-Derived Cannabinoid Compounds in AB Red (stored at 8° C., 120 days): 2.69 µg/mL
Stability of Plant-Derived Cannabinoid Compounds in AB Red (stored at 8° C., 150 days): 2.69 µg/mL
Stability of Plant-Derived Cannabinoid Compounds in AB Red (stored at 8° C., 180 days): 2.74 µg/mL
Stability of Plant-Derived Cannabinoid Compounds in AB Red (stored at 8° C., 210 days): 2.69 µg/mL
Stability of Plant-Derived Cannabinoid Compounds in AB Red (stored at 8° C., 240 days): 2.74 µg/mL
Stability of Plant-Derived Cannabinoid Compounds in AB Red (stored at 8° C., 270 days): 2.76 µg/mL
Stability of Plant-Derived Cannabinoid Compounds in AB Red (stored at 8° C., 300 days): 2.75 µg/mL
Stability of Plant-Derived Cannabinoid Compounds in AB Red (stored at 8° C., 330 days): 2.71 µg/mL
Stability of Plant-Derived Cannabinoid Compounds in AB Red (stored at 8° C., 360 days): 2.69 µg/mL
Stability of Plant-Derived Cannabinoid Compounds in AB Red (stored at 8° C., 390 days): 2.72 µg/mL
Stability of Plant-Derived Cannabinoid Compounds in AB Red (stored at 8° C., 420 days): 2.69 µg/mL
Stability of Plant-Derived Cannabinoid Compounds in AB Red (stored at 8° C., 450 days): 2.71 µg/mL
Stability of Plant-Derived Cannabinoid Compounds in AB Red (stored at 8° C., 480 days): 2.66 µg/mL
Stability of Plant-Derived Cannabinoid Compounds in AB Red (stored at 8° C., 510 days): 2.62 µg/mL
Stability of Plant-Derived Cannabinoid Compounds in AB Red (stored at 8° C., 540 days): 2.60 µg/mL
Stability of Plant-Derived Cannabinoid Compounds in AB Red (stored at 8° C., 570 days): 2.58 µg/mL
Stability of Plant-Derived Cannabinoid Compounds in AB Red (stored at 21-25° C., 0 days): 2.81 µg/mL
Stability of Plant-Derived Cannabinoid Compounds in AB Red (stored at 21-25° C., 1 days): 2.73 µg/mL
Stability of Plant-Derived Cannabinoid Compounds in AB Red (stored at 21-25° C., 2 days): 2.83 µg/mL
Stability of Plant-Derived Cannabinoid Compounds in AB Red (stored at 21-25° C., 3 days): 2.78 µg/mL
Stability of Plant-Derived Cannabinoid Compounds in AB Red (stored at 21-25° C., 5 days): 2.71 µg/mL
Stability of Plant-Derived Cannabinoid Compounds in AB Red (stored at 21-25° C., 8 days): 2.74 µg/mL
Stability of Plant-Derived Cannabinoid Compounds in AB Red (stored at 21-25° C., 9 days): 2.72 µg/mL
Stability of Plant-Derived Cannabinoid Compounds in AB Red (stored at 21-25° C., 10 days): 2.73 µg/mL
Stability of Plant-Derived Cannabinoid Compounds in AB Red (stored at 21-25° C., 11 days): 2.83 µg/mL
Stability of Plant-Derived Cannabinoid Compounds in AB Red (stored at 21-25° C., 12 days): 2.70 µg/mL
Stability of Plant-Derived Cannabinoid Compounds in AB Red (stored at 21-25° C., 15 days): 2.77 µg/mL
Stability of Plant-Derived Cannabinoid Compounds in AB Red (stored at 21-25° C., 16 days): 2.81 µg/mL
Stability of Plant-Derived Cannabinoid Compounds in AB Red (stored at 21-25° C., 17 days): 2.74 µg/mL
Stability of Plant-Derived Cannabinoid Compounds in AB Red (stored at 21-25° C., 18 days): 2.80 µg/mL
Stability of Plant-Derived Cannabinoid Compounds in AB Red (stored at 21-25° C., 19 days): 2.70 µg/mL
Stability of Plant-Derived Cannabinoid Compounds in AB Red (stored at 21-25° C., 22 days): 2.70 µg/mL
Stability of Plant-Derived Cannabinoid Compounds in AB Red (stored at 21-25° C., 23 days): 2.82 µg/mL
Stability of Plant-Derived Cannabinoid Compounds in AB Red (stored at 21-25° C., 24 days): 2.78 µg/mL
Stability of Plant-Derived Cannabinoid Compounds in AB Red (stored at 21-25° C., 25 days): 2.84 µg/mL
Stability of Plant-Derived Cannabinoid Compounds in AB Red (stored at 21-25° C., 26 days): 2.70 µg/mL
Stability of Plant-Derived Cannabinoid Compounds in AB Red (stored at 21-25° C., 29 days): 2.78 µg/mL
Stability of Plant-Derived Cannabinoid Compounds in AB Red (stored at 21-25° C., 30 days): 2.77 µg/mL
Stability of Plant-Derived Cannabinoid Compounds in AB Red (stored at 21-25° C., 60 days): 2.78 µg/mL
Stability of Plant-Derived Cannabinoid Compounds in AB Red (stored at 21-25° C., 90 days): 2.75 µg/mL
Stability of Plant-Derived Cannabinoid Compounds in AB Red (stored at 21-25° C., 120 days): 2.77 µg/mL
Stability of Plant-Derived Cannabinoid Compounds in AB Red (stored at 21-25° C., 150 days): 2.75 µg/mL
Stability of Plant-Derived Cannabinoid Compounds in AB Red (stored at 21-25° C., 180 days): 2.70 µg/mL
Stability of Plant-Derived Cannabinoid Compounds in AB Red (stored at 21-25° C., 210 days): 2.70 µg/mL
Stability of Plant-Derived Cannabinoid Compounds in AB Red (stored at 21-25° C., 240 days): 2.73 µg/mL
Stability of Plant-Derived Cannabinoid Compounds in AB Red (stored at 21-25° C., 270 days): 2.73 µg/mL
Stability of Plant-Derived Cannabinoid Compounds in AB Red (stored at 21-25° C., 300 days): 2.70 µg/mL
Stability of Plant-Derived Cannabinoid Compounds in AB Red (stored at 21-25° C., 330 days): 2.75 µg/mL
Stability of Plant-Derived Cannabinoid Compounds in AB Red (stored at 21-25° C., 360 days): 2.72 µg/mL
Stability of Plant-Derived Cannabinoid Compounds in AB Red (stored at 21-25° C., 390 days): 2.65 µg/mL
Stability of Plant-Derived Cannabinoid Compounds in AB Red (stored at 21-25° C., 420 days): 2.64 µg/mL
Stability of Plant-Derived Cannabinoid Compounds in AB Red (stored at 21-25° C., 450 days): 2.68 µg/mL
Stability of Plant-Derived Cannabinoid Compounds in AB Red (stored at 21-25° C., 480 days): 2.58 µg/mL
Stability of Plant-Derived Cannabinoid Compounds in AB Red (stored at 21-25° C., 510 days): 2.66 µg/mL
Stability of Plant-Derived Cannabinoid Compounds in AB Red (stored at 21-25° C., 540 days): 2.65 µg/mL
Stability of Plant-Derived Cannabinoid Compounds in AB Red (stored at 21-25° C., 570 days): 2.58 µg/mL
